From patent publication US7772241B2, “Variolin derivatives and their use as antitumor agents” (Pharma Mar S.A., priority 2001, dated 2010)
Like-named read-outs stand apart in the source and are kept apart here.

Key:
A-549 = assay: Inhibition of cells growth by colorimetric (SRB) assay, A-549; conditions: for GI50 / CC50: Homo sapiens, A549, 48 h; for TGI A-549 / A-549 TGI: SRB assay, 48 hours exposure
How it was run: (§1)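 Read-out is sulforhodamine B protein stain (OD 490 nm) after cold TCA fixation, following 48 h continuous exposure to samples spanning 10 to 10^−8 μg/ml.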

HT-29 = assay: Inhibition of cells growth by colorimetric (SRB) assay, HT-29; conditions: for GI50 / CC50: Homo sapiens, HT-29, 48 h; for TGI HT-29 / HT-29 TGI: SRB assay, 48 hours exposure
How it was run: as §1

[1] = Inhibition of cells growth by colorimetric (SRB) assay, HMEC1; conditions: human, HMEC1 cells, 48 hours exposure
Source text: (§2) The finality of these assays is to interrupt the growth of a “in vitro” tumor cell culture by means a continued exhibition of the cells to the sample to be testing.
(§3) This form of the assay employs 96 well cell culture microplates of 9 mm diameter (Faircloth, 1988; Mosmann, 1983). Most of the cell lines are obtained from American Type Culture Collection (ATCC) derived from different human cancer types.
(§4) Cells are maintained in RPMI 1640 10% FBS, supplemented with 0.1 g/l penicillin and 0.1 g/l streptomycin sulphate and then incubated at 37° C., 5% CO2 and 98% humidity. For the experiments, cells were harvested from subconfluent cultures using trypsin and resuspended in fresh medium before plating.
(§5) Cells are seeded in 96 well microtiter plates, at 5×10^3 cells per well in aliquots of 195 μl medium, and they are allowed to attach to the plate surface by growing in drug free medium for 18 hours. Afterward, samples are added in aliquots of 5 μl in a ranging from 10 to 10^−8 μg/ml, dissolved in DMSO/EtOH/PBS (0.5:0.5:99). After 48 hours exposure, the antitumor effect are measured by the SRB methodology: cells are fixed by adding 50 μl of cold 50% (wt/vol) trichloroacetic acid (TCA) and incubating for 60 minutes at 4° C. Plates are washed with deionized water and dried. One hundred μl of SRB solution (0.4% wt/vol in 1% acetic acid) is added to each microtiter well and incubated for 10 minutes at room temperature. Unbound SRB is removed by washing with 1% acetic acid. Plates are air dried and bound stain is solubilized with Tris buffer. Optical densities are read on a automated spectrophotometric plate reader at a single wavelength of 490 nm.
(§6) The values for mean +/−SD of data from triplicate wells are calculated. Some parameters for cellular responses can be calculated: GI=growth inhibition, TGI=total growth inhibition (cytostatic effect) and LC=cell killing (cytotoxic effect).

HMEC1 = assay: as above; conditions: for GI50: Homo sapiens, HMEC-1, 48 h
Source text: as §2, §3, §4, §5, §6

[2] = read-out: GI50 A-549, SRB assay, 48 hours exposure
[3] = read-out: LC50 A-549, SRB assay, 48 hours exposure
[4] = read-out: GI50 HT-29, SRB assay, 48 hours exposure
[5] = read-out: LC50 HT-29, SRB assay, 48 hours exposure
[6] = read-out: GI50 H-MEC-1, SRB assay, 48 hours exposure
[7] = SRB assay, 48 hours exposure, in M (unit assumed)
[8] = read-out: A-549 LC50, SRB assay, 48 hours exposure
[9] = read-out: HT-29 GI50, SRB assay, 48 hours exposure
[10] = read-out: HT-29 LC50, SRB assay, 48 hours exposure

For `COc1ccc(CNc2ccnc3c2c(-c2ccnc(SC)n2)c2ccnc(NCc4ccc(OC)cc4)n23)cc1` [Compound 85], the GI50 (A-549; [2]) was 6.58 µM, the CC50 (A-549; [3]) was 17.7 µM and the “TGI A-549” value (A-549) was 1.77E−05. The GI50 (HT-29; [4]) was 12.2 µM, the CC50 (HT-29; [5]) was 17.7 µM and the “TGI HT-29” value (HT-29) was 1.77E−05. The CC50 at 48 h ([1]; LC50 H-MEC-1, SRB assay) was 17.7 µM, the GI50 (HMEC1; [6]) was 6.19 µM and the “TGI H-MEC-1” value (HMEC1; [7]) was 1.77E−05.

With `CSc1nccc2c(-c3cccc([N+](=O)[O-])c3)c3cccnc3n12` [Compound 59] the GI50 (A-549; read-out: A-549 GI50, SRB assay, 48 hours exposure) was 29.7 µM, the CC50 (A-549; [8]) was 29.7 µM and the “A-549 TGI” value (A-549) was 2.97E−05. The GI50 (HT-29; [9]) was 29.7 µM, the CC50 (HT-29; [10]) was 29.7 µM and the “HT-29 TGI” value (HT-29) was 2.97E−05. For the same compound, the CC50 at 48 h ([1]; H-MEC-1 LC50, SRB assay) was 29.7 µM, the GI50 (HMEC1; read-out: H-MEC-1 GI50, SRB assay, 48 hours exposure) was 29.7 µM and the “H-MEC-1 TGI” value (HMEC1; [7]) was 2.97E−05.

With `CSc1nccc2c(-c3ccccc3)c3cccnc3n12` [Compound 58] the CC50 (A-549; [8]) was at least 34.3 µM, the GI50 (A-549; [2]) was at least 34.3 µM and the “A-549 TGI” value (A-549) was 3.43E−05. For the same compound, the GI50 (HT-29; [9]) was at least 34.3 µM, the CC50 (HT-29; [10]) was at least 34.3 µM and the “HT-29 TGI” value (HT-29) was 3.43E−05. For the same compound, the CC50 at 48 h ([1]; LC50 H-MEC-1, SRB assay) was at least 34.3 µM, the GI50 (HMEC1; [6]) was at least 34.3 µM and the “TGI H-MEC-1” value (HMEC1; [7]) was 3.43E−05.

In the case of `CSc1nccc(-c2c3c(OCc4ccccc4)ccnc3n3c(N)nccc23)n1` [Compound 94], the GI50 (A-549; [2]) is reported as 24.1 µM, the CC50 (A-549; [3]) is reported as 24.1 µM and the “TGI A-549” value (A-549) is reported as 2.41E−05. The GI50 (HT-29; [4]) was 24.1 µM, the CC50 (HT-29; [5]) was 24.1 µM and the “TGI HT-29” value (HT-29) was 2.41E−05. For the same compound, the CC50 at 48 h ([1]; LC50 H-MEC-1, SRB assay) was 24.1 µM, the GI50 (HMEC1; [6]) was 9.19 µM and the “TGI H-MEC-1” value (HMEC1; [7]) was 1.97E−05.
